Here are results for two compounds from patent US20260256780A1, “COMPOSITIONS FOR INDUCING RAS GTP HYDROLYSIS AND USES THEREOF” (Revolution Medicines, Inc., priority 2023, published 2026).

Experiment [1] relates to RAS wild-type cell line, HaCat. The experiment is described as follows: Cell viability (CellTiter-Glo) and HSA synergy model, HaCat control. It is filed as cell-based, human. The procedure: (§1) Cell lines were seeded in complete growth media (RPMI-1640 or DMEM with 10% Fetal Bovine Serum and 1% Penicillin/Streptomycin) and allowed to adhere overnight in a 37° C. and 5% CO2 humidified incubator. The following day compounds were added at the indicate concentrations and incubated for a further 5 days. The number of viable cells in each well were assessed with Promega CellTiter-Glo® reagent according to manufacturer instructions. The cell viability was normalized to DMSO controls. The cell viability as a function of compound concentrations were plotted using GraphPad Prism analyzed using the Combenefit software package (Di Veroli G Y, Fornari C, Wang D, Mollard S, Bramhall J L, Richards F M, Jodrell D I. Combenefit: an interactive platform for the analysis and visualization of drug combinations. Bioinformatics. 2016 Sep. 15; 32(18):2866-8. doi: 10.1093/bioinformatics/btw230) to assess the synergy according to the highest single agent (HSA) synergy model (Borisy A A, Elliott P J, Hurst N W, Lee M S, Lehar J, Price E R, Serbedzija G, Zimmermann G R, Foley M A, Stockwell B R, Keith C T. Systematic discovery of multicomponent therapeutics. Proc Natl Acad Sci USA. 2003 Jun. 24; 100(13):7977-82. doi: 10.1073/pnas.1337088100)).
The KRASG12D-mutant cell line Gp2D was grown in RPMI-16 40 supplemented with 10% fetal bovine serum and 1% penicillin/streptomycin. […]
Background: In ATP-based viability assays light output follows the ATP content of the culture.

Experiment [2] has as its system KRASG12R-mutant cell line PSN1. The experiment is described as follows: Cell viability (CellTiter-Glo) and HSA synergy model, PSN1. It is filed as cell-based. The conditions noted are these: in combination with pan KRAS-IN-1, 120 hours. The procedure:
as §1
The KRASG12R-mutant cell line PSN1 was grown in RPMI-1640 supplemented with 10% fetal bovine serum and 1% penicillin/streptomycin. […]

Experiment [3] has as its system KRASG12D-mutant cell line AsPC-1. In words: Cell viability (CellTiter-Glo) and HSA synergy model, AsPC-1. The class given is cell-based. The procedure:
as §1
The KRASG12D-mutant cell line AsPC-1 was grown in RPMI-1640 supplemented with 10% fetal bovine serum and 1% penicillin/streptomycin. 2500 cells were seeded in 0.15 mL in the wells of a tissue culture-treated 96-well plate. After overnight incubation, compounds were added at the indicated concentration and incubated for a further 120 hours. Cell viability was assessed with Promega CellTiter Glo reagent, and the relative cell viability was plotted as a function of the concentration of (FIG. 4A and FIG. 4G) MRTX1133 or (FIG. 4D) MRTX-282 in combination with the indicated concentration to Compound A (FIG. 4A and FIG. 4D) or Compound D (FIG. 4G), both strong hydrolyzers. The synergy between (FIG. 4B and FIG. 4H) MRTX1133 or (FIG. 4E) MRTX-282 and Compound A (FIGS. 4B and 4E) or Compound D (FIG. 4H) was assessed by the HAS synergy model. Representative points of synergistic drug combination between (FIG. 4C and FIG. 4I) MRTX1133 or (FIG. 4F) MRTX-282 and Compound A (FIG. 4C and FIG. 4F) or Compound D (FIG. 4I) are highlighted.
The KRASG12D-mutant cell line AsPC-1 was grown in RPMI-1640 supplemented with 10% fetal bovine serum and 1% penicillin/streptomycin. 2000 cells were seeded in 0.15 mL in the wells of a tissue culture-treated 96-well plate. After overnight incubation, compounds were added at the indicated concentration and incubated for a further 120 hours. Cell viability was assessed with Promega CellTiter Glo reagent, and the relative cell viability was plotted as a function of the concentration of pan KRAS-IN-1 in combination with the indicated concentration to Compound D (FIG. 11A) or Compound C (FIG. 11D), both strong hydrolyzers. The synergy between pan KRAS-IN-1 and Compound D (FIG. 11B) or Compound C (FIG. 11E) was assessed by the HAS synergy model. Representative points of synergistic drug combination between pan KRAS-IN-1 and Compound D (FIG. 11C) or Compound C (FIG. 11F).

Experiment [4] concerns KRASG12C-mutant cell line H358. In words: Cell viability (CellTiter-Glo) and HSA synergy model, H358. It is filed as cell-based. The conditions noted are these: in combination with pan KRAS-IN-1, 120 hours. As for the experimental part: as §1
The KRASG12C-mutant cell line H358 was grown in RPMI-1640 supplemented with 10% fetal bovine serum and 1% penicillin/streptomycin. […]

Experiment [5] concerns KRASG12V-mutant cell line Capan-2. The experiment is described as follows: Cell viability (CellTiter-Glo) and HSA synergy model, Capan-2. It is filed as cell-based. Conditions: in combination with pan KRAS-IN-1, 120 hours. The procedure:
as §1
The KRASG12V-mutant cell line Capan-2 was grown in RPMI-1640 supplemented with 10% fetal bovine serum and 1% penicillin/streptomycin. […]

Experiment [6] has as its system complexes between KRAS proteins and the RAS-binding domain (RBD) of the RAF1 kinase. The experiment is described as follows: Intracellular RAS-RAF complex reporter assay (nanoBRET) in U2OS cells, multiple KRAS variants. The class given is cell-based. Conditions: 4 hours. The procedure: A cellular assay was used to measure complexes between KRAS proteins and the RAS-binding domain (RBD) of the RAF1 kinase by nanoluciferase bioluminescence energy transfer (nanoBRET™) U2OS cells were seeded at confluence in the 3 mL of DMEM supplemented with 10% fetal bovine serum and 1% penicillin/streptomycin (approximately 1 million cells per well). The following day, each well was transfected with 50 ng of a plasmid encoding N-terminal nanoluciferase-tagged KRAS4B and 2950 ng of a plasmid encoding a C-terminal HaloTag® RAF1 RBD (residues 51-149) using FuGENE HD reagent according to manufacturer instructions. The following day, each transfected cell pool was transferred to 36 wells of a white 96-well plate in media consistiting of OptiMem phenol-red free supplemented with 4% fetal bovine serum, 1% penicillin/streptomycin, and 100 nM of HaloTag® NanoBRET™ 618 Ligand. The following day, Vivazine™ nanoluciferase substrate and compounds were added at the indicated concentration. After 4 hours of incubation, the emitted light at 460 and 618 nm was measured using a PerkinElmer Envision plate reader. The luminescence intensity at 618 nm relative to 460 nm is proportional to the number of complexes between the KRAS protein and the RBD of RAF1, a surrogate measure of the levels of active KRAS.
A general note: In a reporter assay the amount or activity of a reporter protein is the signal.

The target of experiment [7] is T1, GTP-loaded KRAS proteins (residue 1-169 of KRAS4B) (Homo sapiens, UniProt P01116, G12V).
T1 construct: recombinant KRAS proteins (residue 1-169 of KRAS4B); His6 (TEV protease-cleavable) (cleaved yes); made in house; host or cells: E. coli
In words: RAS GTP hydrolysis rate assay (GTPase-Glo) with cyclophilin A. The class given is biochemical. The conditions noted are these: bound in tri-complex with cyclophilin A; in some embodiments KRAS^G12V is the isoform used. As for the experimental part:
(§2) The rate of RAS GTP hydrolysis was assayed in the presence of various KRAS mutations. To assess GTP hydrolysis activity, recombinant KRAS proteins (residue 1-169 of KRAS4B) were expressed in E. coli and purified using a TEV protease-cleavable His6-tag and Ni^2+ affinity chromatography. The His6 tag was removed by treatment with TEV protease, and the KRAS protein was isolated by passing through a second Ni^2+ column followed by size exclusion chromatography. The purified KRAS proteins were loaded with GTP by incubation for 2 hours on ice with 2 mM GTP and 10 mM Ethylenediaminetetraacetic Acid, followed by addition of 10 mM MgCl2 and incubation on ice for 1 additional hour. The excess GTP was removed by overnight dialysis against buffer (12.5 mM HEPES, 75 mM NaCl, pH 7.5) at 4° C. The GTP-loaded KRAS protein were flash frozen in liquid nitrogen, then stored at −80° C. until use.
(§3) GTP-loaded KRAS proteins (1 μM) were combined with 25 μM of recombinant human cyclophilin A and 10 μM of compound in reaction buffer (12.5 mM HEPES, 75 mM NaCl, 1 mM MgCl2, 1 mM DTT, 1% DMSO, pH 7.5) pre-warmed to 37° C. At fixed time points, aliquots were removed and quenched by heating to 80° C. to denature the proteins, then centrifuged to pellet the protein precipitate. The supernatant was assessed for GTP levels using Promega GTPase-Glo™ according to manufacturer instructions. The levels of GTP as a function of incubation time were fit to a single phase exponential decay to determine the rate constant for hydrolysis activity.

The test system of experiment [8] is GTP-loaded KRAS proteins (residue 1-169 of KRAS4B). The experiment is described as above. The conditions noted are these: all RAS mutants except those with mutations of the Q61 residue; 10 μM compound, 25 μM cyclophilin A, 37° C. It is filed as biochemical. The procedure:
as §2, §3

The target of the next experiment is T2, KRAS^WT-RAF1 RBD complex (Homo sapiens, UniProt P01116).
T2 construct: expressed in transfected cells; host or cells: U2OS
The experiment is described as follows: Intracellular RAS-RAF complex reporter assay (nanoBRET) in U2OS cells, KRAS^WT. It is filed as cell-based. The conditions noted are these: 4 hours.

Procedure for KRAS^WT-RAF1 RBD complex: A cellular assay was used to measure complexes between KRAS proteins and the RAS-binding domain (RBD) of the RAF1 kinase by nanoluciferase bioluminescence energy transfer (nanoBRET™) U2OS cells were seeded at confluence in the 3 mL of DMEM supplemented with 10% fetal bovine serum and 1% penicillin/streptomycin (approximately 1 million cells per well). […] The following day, Vivazine™ nanoluciferase substrate and compounds were added at the indicated concentration. After 4 hours of incubation, the emitted light at 460 and 618 nm was measured using a PerkinElmer Envision plate reader. The luminescence intensity at 618 nm relative to 460 nm is proportional to the number of complexes between the KRAS protein and the RBD of RAF1, a surrogate measure of the levels of active KRAS.

For the compound `CCn1c(-c2cc(N3CCN(C)CC3)cnc2[C@H](C)OC)c2c3cc(ccc31)[C@@H]1C[C@H]1CC[C@H](NC(=O)[C@H]1[C@H](C)[C@@H]1C)C(=O)N1CCC[C@H](N1)C(=O)OCC(C)(C)C2` (atropisomer, axis not shown) [compound 6], the “synergy on cell viability (HSA synergy model)” value in [1] (in combination with MRTX1133) is reported as “no synergy”; in [1] (in combination with MRTX-282) it was “no synergy”; in experiment [2], “synergistic”; in experiment [3] (AsPC-1, in combination with MRTX1133, 120 hours), “synergistic”; in experiment [3] (AsPC-1, in combination with pan KRAS-IN-1, 120 hours), “synergistic”; in experiment [4], “synergistic”. Further, in experiment [5], the “synergy on cell viability (HSA synergy model)” value is listed as “synergistic”.

Regarding `CCn1c(-c2cc(N3CCN(C4CC4)CC3)cnc2[C@H](C)OC)c2c3cc(ccc31)-c1csc(n1)C[C@H](NC(=O)[C@H]1[C@@H]3COC[C@@H]31)C(=O)N1CCC[C@H](N1)C(=O)OCC(C)(C)C2` (atropisomer, axis not shown) [compound 8], in experiment [6], the “potency for inhibition of RAS-RAF complexes across multiple KRAS variants” value is “roughly similar potency”. Also, the “hydrolyzer class: RAS(ON) GTP hydrolysis rate relative to the intrinsic hydrolysis rate” value in [7] is given as 8 (Compound E) Moderate. Moreover, in [8], the “RAS GTP hydrolysis in various RAS mutants in the presence of compound” value is given as “increased hydrolysis”. Also, the “potency for inhibition of RAS-RAF complexes vs KRAS^WT, relative to the other KRAS variants” value at KRAS^WT-RAF1 RBD complex was “modestly lower potency”.
